# In patent US10570121B2, “Substituted dihydroisoquinolinone compounds” (priority 2014, dated 2020):
# pIC50, pKi: −log10 of the molar value. Read-outs that look alike come from different tables or passages of the source.
# Tests used:
# Type in all cases: biochemical
# WT EZH2 [1] = target: T1, WT EZH2 (Homo sapiens (Human), UniProt Q15910); assay: WT EZH2 nucleosome assay (10X SAM, high SAM conditions); conditions: 15 uM SAM, Ki app from competitive inhibition fit; for pKi: read-out: WT EZH2 Nucleosome assay (10X SAM) Ki
# T1 sequence (Q15910 whole entry, looked up): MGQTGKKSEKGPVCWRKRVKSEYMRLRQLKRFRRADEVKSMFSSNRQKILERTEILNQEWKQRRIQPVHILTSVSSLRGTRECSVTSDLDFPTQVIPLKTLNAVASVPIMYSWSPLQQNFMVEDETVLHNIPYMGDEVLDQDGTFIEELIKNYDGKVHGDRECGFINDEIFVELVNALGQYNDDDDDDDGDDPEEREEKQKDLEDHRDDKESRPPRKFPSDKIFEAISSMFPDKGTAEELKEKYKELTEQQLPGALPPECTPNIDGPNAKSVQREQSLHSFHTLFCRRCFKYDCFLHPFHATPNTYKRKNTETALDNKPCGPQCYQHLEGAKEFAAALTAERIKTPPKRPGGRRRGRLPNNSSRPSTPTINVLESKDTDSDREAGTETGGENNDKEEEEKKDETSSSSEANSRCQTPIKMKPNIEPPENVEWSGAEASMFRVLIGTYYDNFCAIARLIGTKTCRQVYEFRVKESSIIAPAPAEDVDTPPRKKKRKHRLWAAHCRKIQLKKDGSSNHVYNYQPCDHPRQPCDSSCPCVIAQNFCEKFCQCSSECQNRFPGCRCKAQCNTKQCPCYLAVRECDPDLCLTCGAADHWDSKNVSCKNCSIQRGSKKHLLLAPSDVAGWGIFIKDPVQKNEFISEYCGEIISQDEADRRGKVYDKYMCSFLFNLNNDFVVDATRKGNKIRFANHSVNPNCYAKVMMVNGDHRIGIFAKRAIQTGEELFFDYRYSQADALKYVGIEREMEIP
# T1 sequence (O75530 whole entry partner, looked up): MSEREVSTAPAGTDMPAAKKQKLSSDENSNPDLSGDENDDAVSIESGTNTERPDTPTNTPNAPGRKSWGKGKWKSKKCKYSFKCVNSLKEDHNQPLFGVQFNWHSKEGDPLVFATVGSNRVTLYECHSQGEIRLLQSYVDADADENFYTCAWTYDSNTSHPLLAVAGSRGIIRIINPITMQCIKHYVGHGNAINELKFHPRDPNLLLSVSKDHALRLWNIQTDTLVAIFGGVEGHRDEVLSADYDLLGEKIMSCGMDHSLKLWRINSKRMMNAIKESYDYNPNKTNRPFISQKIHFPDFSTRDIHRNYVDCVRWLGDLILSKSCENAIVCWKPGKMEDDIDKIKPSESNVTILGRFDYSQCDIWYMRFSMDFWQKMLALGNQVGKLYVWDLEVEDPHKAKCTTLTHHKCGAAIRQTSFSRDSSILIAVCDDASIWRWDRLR
# T1 sequence (Q15022 whole entry partner, looked up): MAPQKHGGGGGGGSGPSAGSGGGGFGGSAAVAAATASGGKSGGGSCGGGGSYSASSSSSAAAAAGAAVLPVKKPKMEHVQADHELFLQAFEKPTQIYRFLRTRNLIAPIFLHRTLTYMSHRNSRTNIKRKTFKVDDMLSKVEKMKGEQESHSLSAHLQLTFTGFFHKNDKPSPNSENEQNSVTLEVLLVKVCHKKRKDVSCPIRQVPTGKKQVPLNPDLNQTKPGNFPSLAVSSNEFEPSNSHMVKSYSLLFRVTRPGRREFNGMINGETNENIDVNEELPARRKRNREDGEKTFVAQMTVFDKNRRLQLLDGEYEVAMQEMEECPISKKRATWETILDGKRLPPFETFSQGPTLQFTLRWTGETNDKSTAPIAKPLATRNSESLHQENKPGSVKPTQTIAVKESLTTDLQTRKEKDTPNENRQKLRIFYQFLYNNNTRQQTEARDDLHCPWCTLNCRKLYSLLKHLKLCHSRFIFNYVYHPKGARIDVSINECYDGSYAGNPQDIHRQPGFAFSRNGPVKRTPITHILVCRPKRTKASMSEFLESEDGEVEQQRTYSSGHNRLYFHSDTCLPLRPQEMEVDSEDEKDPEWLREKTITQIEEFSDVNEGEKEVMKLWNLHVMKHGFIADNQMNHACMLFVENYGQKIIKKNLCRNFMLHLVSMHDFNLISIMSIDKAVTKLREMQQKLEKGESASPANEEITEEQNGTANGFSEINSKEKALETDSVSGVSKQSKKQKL
# T1 sequence (Q09028 whole entry partner, looked up): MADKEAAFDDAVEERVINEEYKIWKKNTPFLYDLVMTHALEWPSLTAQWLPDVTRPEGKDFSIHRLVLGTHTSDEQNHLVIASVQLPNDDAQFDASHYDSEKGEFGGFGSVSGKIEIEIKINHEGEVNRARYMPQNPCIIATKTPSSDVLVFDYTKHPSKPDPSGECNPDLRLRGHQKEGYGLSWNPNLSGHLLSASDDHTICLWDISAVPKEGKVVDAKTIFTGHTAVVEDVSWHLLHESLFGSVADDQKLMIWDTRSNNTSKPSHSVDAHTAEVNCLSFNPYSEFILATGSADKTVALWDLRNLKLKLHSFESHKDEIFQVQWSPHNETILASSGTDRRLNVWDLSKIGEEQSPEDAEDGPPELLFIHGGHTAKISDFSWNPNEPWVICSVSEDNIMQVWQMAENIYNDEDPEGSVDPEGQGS
# WT EZH2 [2] = target: T1, WT EZH2; assay: WT EZH2 nucleosome assay; conditions: PRC2 4-protein complex 4 nM, 1.5 μM SAM, HeLa oligonucleosomes; for pIC50: read-out: WT EZH2 Nucleosome assay IC50
# Experimental: The genes for EZH2, EED, SUZ12, and RBBP4 proteins were cloned into pBacPAK9 vectors (Clontech). RBBP4 was FLAG tagged on the N-terminal end. The baculovirus expressions of these proteins were used to co-infect SF9 insect cells. Insect cell pellets were lysed in a buffer containing 25 mM Tris pH8.0, 300 mM NaCl, 0.5 mM TCEP, complete EDTA-free protease inhibitor (Roche), 0.1% NP-40. The supernatant from the lysate was incubated with FLAG® M2 antibody resin (Sigma). The resin was washed on the chromatography column and eluted with 0.2 mg/ml FLAG peptide. The elute was incubated with omnicleave nucleases (Epicentre Technologies) at 4° C. overnight, then concentrated and loaded onto a Superdex 200 (GE Healthcare) column. The Superdex 200 column was eluted with 25 mM Tris pH8.0, 150 mM NaCl, 0.5 mM TCEP. Fractions containing the PRC2 complex were pooled.
# A. Compound preparation • 1.
# B. Reagent preparation • 1. […] Dilute TCA to 20% in DI water
# C. Enzyme reaction • 1. […] Some compounds were tested under high SAM conditions.
# D. Data analysis • 1. IC50 values were determined by fitting the data to a 4-parameter IC50 equation using proprietary curve fitting software. • 2. For compounds tested under high SAM conditions, Ki^app values were obtained by fitting the dose response curve to a model for competitive inhibition using proprietary curve fitting software. Preparation of HeLa Oligonucleosomes: Reagents • Cell Pellet: 15 L HeLa S3 (Accelgen)+6 L HeLa S3 (in house) • Mnase (Worthington Biochemicals) Equipment • SW-28 Rotor • Dounce Homogenizer/B Pestle Buffers • Lysis: 20 mM Hepes pH 7.5, 0.25M Sucrose, 3 mM MgCl2, 0.5% Nonidet P-40, 0.5 mM TCEP, 1 Roche Protease Tablet • B: 20 mM Hepes pH7.5, 3 mM MgCl2, 0.5 mM EDTA, 0.5 mM TCEP, 1 Roche Protease Tablet • MSB: 20 mM Hepes pH7.5, 0.4 M NaCl, 1 mM EDTA, 5% v/v Glycerol, 0.5 mM TCEP, 0.2 mM PMSF • LSB: 20 mM Hepes pH7.5, 0.1M NaCl, 1 mM EDTA, 0.5 mM TCEP, 0.2 mM PMSF • NG: 20 mM Hepes pH7.5, 1 mM EDTA, 0.4 m NaCl, 0.2 mM PMSF, 0.5 mM TCEP • Storage: 20 mM Hepes pH7.5, 1 mM EDTA, 10% Glycerol, 0.2 mM PMSF, 0.5 mM TCEP Protocol
# EZH2 Mutant Y641N = EZH2 Mutant Y641N (Homo sapiens (Human), UniProt Q15910, Y641N); assay: EZH2 Mutant Y641N nucleosome assay; conditions: PRC2 4-protein complex 6 nM, 1.5 μM SAM, HeLa oligonucleosomes; for pIC50: read-out: EZH2 Mutant Y641N Nucleosome assay IC50
# Chain of EZH2 Mutant Y641N (Q15910 whole entry Y641N, looked up): as the sequence (Q15910 whole entry, looked up) above, with Y641N counted along it
# Chain of EZH2 Mutant Y641N (O75530 whole entry partner, looked up): as the sequence (O75530 whole entry partner, looked up) above
# Chain of EZH2 Mutant Y641N (Q15022 whole entry partner, looked up): as the sequence (Q15022 whole entry partner, looked up) above
# Chain of EZH2 Mutant Y641N (Q09028 whole entry partner, looked up): as the sequence (Q09028 whole entry partner, looked up) above
Ki (WT EZH2 [1]; WT EZH2 Nucleosome assay (10X SAM) Ki (μM)) [µM],IC50 (WT EZH2 [2]; WT EZH2 Nucleosome assay IC50 (μM)) [µM],IC50 (EZH2 Mutant Y641N; EZH2 Mutant Y641N Nucleosome assay IC50 (μM)) [µM],Structure (SMILES),pIC50 (WT EZH2 [2]),pIC50 (EZH2 Mutant Y641N),pKi (WT EZH2 [1])
0.136,0.105,0.443,"COC(c1cc(Cl)c2c(c1Cl)C(=O)N(Cc1c(C)cc(C)[nH]c1=O)CC2)C1CCN(C(=O)CO)CC1 (single isomer, unassigned) [Example 36, 5,8-dichloro-2-[(4,6-dimethyl-2-oxo-1,2-dihydropyridin-3-yl)methyl]-7-{[1-(hydroxyacetyl)piperidin-4-yl](methoxy)methyl}-3,4-dihydroisoquinolin-1(2H)-one]",,,
,,,"Cc1cc(C)c(CN2CCc3c(Cl)cc(C([C@H](C)O)[C@@H](C)O)c(Cl)c3C2=O)c(=O)[nH]1 (single isomer, unassigned) [Example 42]",7.92,6.99,
,,,"Cc1cc(C)c(CN2CCc3c(Cl)cc([C@H](CO)[C@H]4CCOC4)c(Cl)c3C2=O)c(=O)[nH]1 [Example 1, 5,8-dichloro-2-[(4,6-dimethyl-2-oxo-1,2-dihydropyridin-3-yl)methyl]-7-{(1R)-2-hydroxy-1-[(3R)-tetrahydrofuran-3-yl]ethyl}-3,4-dihydroisoquinolin-1(2H)-one]",9.00,8.52,
,,,"Cc1cc(C)c(CN2CCc3c(Cl)cc(C(C)C)c(Cl)c3C2=O)c(=O)[nH]1 [Example 14, 5,8-dichloro-2-[(4,6-dimethyl-2-oxo-1,2-dihydropyridin-3-yl)methyl]-7-(propan-2-yl)-3,4-dihydroisoquinolin-1(2H)-one]",8.10,7.40,
,,,Cc1cc(C)c(CN2CCc3c(Cl)cc([C@H](C)CO)c(Cl)c3C2=O)c(=O)[nH]1 [Example 18],6.90,6.00,6.94
,,,Cc1cc(C)c(CN2CCc3c(Cl)cc([C@@H](C)CO)c(Cl)c3C2=O)c(=O)[nH]1 [Example 19],7.89,6.88,8.00
,,,Cc1cc(C)c(CN2CCc3c(Cl)cc(CC(=O)O)c(Cl)c3C2=O)c(=O)[nH]1 [Example 22],5.11,4.02,
,,,Cc1cc(C)c(CN2CCc3c(Cl)cc(CC4CCN(C(=O)CO)CC4)c(Cl)c3C2=O)c(=O)[nH]1 [Example 23],8.05,7.17,
